In patent publication US9695155B2, “Herbicidal substituted pyrimidinyloxy benzene compounds” (E. I. DU PONT DE NEMOURS AND COMPANY, priority 2013, dated 2017):

How the values were obtained:
large (Lg) crabgrass = assay: Test E preemergence; type: in vivo, Digitaria sanguinalis; conditions: for Crabgrass, Large plant response rating: scale 0 to 100 (0 no effect, 100 complete control); for Plant response rating, Crabgrass, Large: scale 0 to 100, 0 no effect, 100 complete control
Outline: (§1)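 Response was scored visually on a 0-100 scale (100 = complete control) versus controls after 14 to 21 days in the greenhouse. Test chemicals, formulated with surfactant in a non-phytotoxic solvent mixture, had been applied preemergence to seeds in silt loam soil or postemergence to 1- to 4-leaf plants in potting medium.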

lambsquarters = assay: Test E preemergence; type: in vivo, Chenopodium album; conditions: for Lambsquarters plant response rating: scale 0 to 100 (0 no effect, 100 complete control); for Plant response rating, Lambsquarters: scale 0 to 100, 0 no effect, 100 complete control
Outline: as §1

johnsongrass = assay: Test E preemergence; type: in vivo, Sorghum halepense; conditions: for Johnsongrass plant response rating: scale 0 to 100 (0 no effect, 100 complete control); for Plant response rating, Johnsongrass: scale 0 to 100, 0 no effect, 100 complete control
Outline: as §1

Italian ryegrass = assay: Test E postemergence; type: in vivo, Lolium multiflorum; conditions: Lolium multiflorum, post-emergence, read-out: Plant response rating, Ryegrass, Italian
Source text: (§2) Seeds of plant species selected from corn (Zea mays), soybean (Glycine max), velvetleaf (Abutilon theophrasti), lambsquarters (Chenopodium album), wild poinsettia (Euphorbia heterophylla), palmer pigweed (Amaranthus palmeri), waterhemp (common waterhemp, Amaranthus rudis), surinam grass (Brachiaria decumbens), large (Lg) crabgrass (Digitaria sanguinalis), Brazilian crabgrass (Digitaria horizontalis), fall panicum (Panicum dichotomiflorum), giant foxtail (Setaria faberii), green foxtail (Setaria viridis), goosegrass (Eleusine indica), johnsongrass (Sorghum halepense), ragweed (common ragweed, Ambrosia elatior), barnyardgrass (Echinochloa crus-galli), sandbur (southern sandbur, Cenchrus echinatus), arrowleaf sida (Sida rhombifolia), Italian ryegrass (Lolium multiflorum), dayflower (Virginia (VA) dayflower, Commelina virginica), field bindweed (Convolvulus arvensis), morningglory (Ipomoea coccinea), nightshade (eastern black nightshade, Solanum ptycanthum), kochia (Kochia scoparia), yellow nutsedge (Cyperus esculentus), cocklebur (common cocklebur, Xanthium strumarium), smartweed (ladysthumb smartweed, and hairy beggarticks (Bidens pilosa), were planted into a silt loam soil and treated preemergence with test chemicals formulated in a non-phytotoxic solvent mixture which included a surfactant.
(§3) At the same time, plants from these crop and weed species and also horseweed (Canada horseweed, Conyza canadensis), waterhemp_RES1, (ALS & Triazine resistant common waterhemp, Amaranthus rudis), and waterhemp_RES2, (ALS & HPPD resistant common waterhemp, Amaranthus rudis) were planted in pots containing Redi-Earth® planting medium (Scotts Company, 14111 Scottslawn Road, Marysville, Ohio 43041) comprising spaghnum peat moss, vermiculite, wetting agent and starter nutrients were treated with postemergence applications of test chemicals formulated in the same manner. Plants ranged in height from 2 to 18 cm for postemergence treatments (1- to 4-leaf stage). Treated plants and controls were maintained in a greenhouse for 14 to 21 days, after which time all species were compared to controls and visually evaluated. Plant response ratings, summarized in Table E, are based on a scale of 0 to 100 where 0 is no effect and 100 is complete control. A dash (-) response means no test result.

arrowleaf sida = assay: Test E preemergence; type: in vivo, Sida rhombifolia; conditions: for Arrowleaf Sida plant response rating: scale 0 to 100 (0 no effect, 100 complete control); for Plant response rating, Arrowleaf Sida: scale 0 to 100, 0 no effect, 100 complete control
Outline: as §1

fall panicum [1] = assay: Test E preemergence; type: in vivo, Panicum dichotomiflorum; conditions: for Panicum, Fall plant response rating: scale 0 to 100 (0 no effect, 100 complete control); for Plant response rating, Panicum, Fall: scale 0 to 100, 0 no effect, 100 complete control
Outline: as §1

waterhemp = assay: Test E postemergence; type: in vivo, Amaranthus rudis; conditions: Amaranthus tuberculatus, post-emergence, read-out: Plant response rating, Waterhemp
Outline: as §1

[2] = test system: waterhemp_RES2 (ALS & HPPD resistant common waterhemp); assay: Test E postemergence; type: in vivo, Amaranthus rudis; conditions: Amaranthus tuberculatus, post-emergence, read-out: Plant response rating, Waterhemp_RES2
Outline: as §1

kochia = assay: Test E preemergence; type: in vivo, Kochia scoparia; conditions: for Kochia plant response rating: scale 0 to 100 (0 no effect, 100 complete control); for Plant response rating, Kochia: scale 0 to 100, 0 no effect, 100 complete control
Outline: as §1

dayflower = assay: Test E postemergence; type: in vivo, Commelina virginica; conditions: Commelina virginica, post-emergence, read-out: Plant response rating, Dayflower, VA
Source text: as §2, §3

sandbur = assay: Test E preemergence; type: in vivo, Cenchrus echinatus; conditions: for Sandbur plant response rating: scale 0 to 100 (0 no effect, 100 complete control); for Plant response rating, Sandbur: scale 0 to 100, 0 no effect, 100 complete control
Outline: as §1

palmer pigweed = assay: Test E preemergence; type: in vivo, Amaranthus palmeri; conditions: for Pigweed, Palmer plant response rating: scale 0 to 100 (0 no effect, 100 complete control); for Plant response rating, Pigweed, Palmer: scale 0 to 100, 0 no effect, 100 complete control
Outline: as §1

hairy beggarticks = assay: Test E postemergence; type: in vivo, Bidens pilosa; conditions: Bidens pilosa, post-emergence, read-out: Plant response rating, Beggarticks
Outline: as §1

fall panicum [3] = assay: Test E postemergence; type: in vivo, Panicum dichotomiflorum; conditions: Panicum dichotomiflorum, post-emergence, read-out: Plant response rating, Panicum, Fall
Outline: as §1

[4] = Postemergence, 31 g ai/ha, scale 0 to 100
[5] = Postemergence, 62 g ai/ha, scale 0 to 100
[6] = Postemergence, 125 g ai/ha, scale 0 to 100
[7] = postemergence, 16 g ai/ha, scale 0 to 100, 0 no effect, 100 complete control

SMILES: N#Cc1cccc(Oc2ncc(Cl)cn2)c1-n1cc(Br)cn1 [Compound 52, 2-(4-bromo-1H-pyrazol-1-yl)-3-[(5-chloro-2-pyrimidinyl)oxy]benzonitrile]
- Crabgrass, Large plant response rating (large (Lg) crabgrass; 16 g ai/ha): 0
- Crabgrass, Large plant response rating (large (Lg) crabgrass; 31 g ai/ha): 35
- Crabgrass, Large plant response rating (large (Lg) crabgrass; 62 g ai/ha): 98
- Plant response rating, Crabgrass, Large (large (Lg) crabgrass; 125 g ai/ha): 100
- Plant response rating, Crabgrass, Large (large (Lg) crabgrass; 250 g ai/ha): 100
- Lambsquarters plant response rating (lambsquarters; 16 g ai/ha): 0
- Lambsquarters plant response rating (lambsquarters; 31 g ai/ha): 75
- Lambsquarters plant response rating (lambsquarters; 62 g ai/ha): 98
- Plant response rating, Lambsquarters (lambsquarters; 125 g ai/ha): 98
- Plant response rating, Lambsquarters (lambsquarters; 250 g ai/ha): 100
- Johnsongrass plant response rating (johnsongrass; 16 g ai/ha): 0
- Johnsongrass plant response rating (johnsongrass; 31 g ai/ha): 0
- Johnsongrass plant response rating (johnsongrass; 62 g ai/ha): 30
- Plant response rating, Johnsongrass (johnsongrass; 125 g ai/ha): 70
- Plant response rating, Johnsongrass (johnsongrass; 250 g ai/ha): 98
- pest or weed control at 31 g/ha (Italian ryegrass; [4]): 0%
- pest or weed control at 62 g/ha (Italian ryegrass; [5]): 0%
- pest or weed control at 125 g/ha (Italian ryegrass; [6]): 10%
- pest or weed control at 16 g/ha (Italian ryegrass; [7]): 0%
- Arrowleaf Sida plant response rating (arrowleaf sida; 16 g ai/ha, preemergence): 35
- Arrowleaf Sida plant response rating (arrowleaf sida; 31 g ai/ha, preemergence): 40
- Plant response rating, Arrowleaf Sida (arrowleaf sida; Preemergence, 62 g ai/ha): 60
- Plant response rating, Arrowleaf Sida (arrowleaf sida; preemergence, 125 g ai/ha): 80
- Plant response rating, Arrowleaf Sida (arrowleaf sida; preemergence, 250 g ai/ha): 100
- Panicum, Fall plant response rating (fall panicum [1]; 16 g ai/ha): 0
- Panicum, Fall plant response rating (fall panicum [1]; 31 g ai/ha): 0
- Panicum, Fall plant response rating (fall panicum [1]; 62 g ai/ha): 100
- Plant response rating, Panicum, Fall (fall panicum [1]; 125 g ai/ha): 100
- Plant response rating, Panicum, Fall (fall panicum [1]; 250 g ai/ha): 100
- pest or weed control at 31 g/ha (waterhemp; [4]): 70%
- pest or weed control at 62 g/ha (waterhemp; [5]): 75%
- pest or weed control at 125 g/ha (waterhemp; [6]): 95%
- pest or weed control at 16 g/ha (waterhemp; [7]): 65%
- pest or weed control at 31 g/ha [2, 4]: 90%
- pest or weed control at 62 g/ha [2, 5]: 95%
- pest or weed control at 125 g/ha [2, 6]: 90%
- pest or weed control at 16 g/ha [2, 7]: 80%
- Kochia plant response rating (kochia; 31 g ai/ha): 25
- Kochia plant response rating (kochia; 62 g ai/ha): 65
- Plant response rating, Kochia (kochia; 125 g ai/ha): 100
- Plant response rating, Kochia (kochia; 250 g ai/ha): 100
- pest or weed control at 31 g/ha (dayflower; [4]): 40%
- pest or weed control at 62 g/ha (dayflower; [5]): 50%
- pest or weed control at 125 g/ha (dayflower; [6]): 60%
- pest or weed control at 16 g/ha (dayflower; [7]): 30%
- Sandbur plant response rating (sandbur; 16 g ai/ha): 0
- Sandbur plant response rating (sandbur; 31 g ai/ha): 0
- Sandbur plant response rating (sandbur; 62 g ai/ha): 10
- Plant response rating, Sandbur (sandbur; 125 g ai/ha): 35
- Plant response rating, Sandbur (sandbur; 250 g ai/ha): 80
- Pigweed, Palmer plant response rating (palmer pigweed; 16 g ai/ha): 25
- Pigweed, Palmer plant response rating (palmer pigweed; 31 g ai/ha): 100
- Pigweed, Palmer plant response rating (palmer pigweed; 62 g ai/ha): 100
- Plant response rating, Pigweed, Palmer (palmer pigweed; 125 g ai/ha): 100
- Plant response rating, Pigweed, Palmer (palmer pigweed; 250 g ai/ha): 100
- pest or weed control at 31 g/ha (hairy beggarticks; [4]): 60%
- pest or weed control at 62 g/ha (hairy beggarticks; [5]): 70%
- pest or weed control at 125 g/ha (hairy beggarticks; [6]): 75%
- pest or weed control at 16 g/ha (hairy beggarticks; [7]): 30%
- pest or weed control at 31 g/ha (fall panicum [3]; [4]): 10%
- pest or weed control at 62 g/ha (fall panicum [3]; [5]): 10%
- pest or weed control at 125 g/ha (fall panicum [3]; [6]): 40%
- pest or weed control at 16 g/ha (fall panicum [3]; [7]): 5%
